Measured values reported in patent publication US20140303164A1, “THERAPEUTIC COMPOUNDS” (Gilead Sciences, Inc., priority 2013, published 2014).

Columns and labels:
[1] = Test B: Cytotoxicity Assay; type: cell-based; conditions: human, uninfected MT-4 cells, same protocol as Test A
In short: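 Uninfected MT-4 cells (2000 per well) incubated with diluted compound at 37° C. for 5 days, following the antiviral protocol without HIV-IIIb.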

HIV-IIIb = assay: Test A: Antiviral Assay in MT4 Cells; type: cell-based, HIV-1; conditions: Human immunodeficiency virus 1, IIIB, MT4, 120 h; for inhibition at 0.2 µM: read-out: % inhibition at 0.2 μM; for inhibition at 2 µM: read-out: % inhibition at 2 μM
Method: Test A: Antiviral Assay in MT4 Cells
MT-4 cells were next mixed with HIV-IIIb at an m.o.i of 0.003 for 1 hour, after which time 35 μL of virus/cell mixture (2000 cells) was immediately added to each well containing 40 μL of diluted compound. The plates were then incubated at 37° C. for 5 days. […] Cell lysis was carried out by incubating at room temperature for 10 min and then chemiluminescence was read.

| SMILES | CC50 at 5 days [1] | inhibition at 0.2 µM (HIV-IIIb) | inhibition at 2 µM (HIV-IIIb) |
| --- | --- | --- | --- |
| CCNc1nn(C)c2c(-c3ccc(C#CC(C)(C)O)nc3[C@H](Cc3cc(F)cc(F)c3)NC(=O)Cn3nc(C(F)F)c4c3C(F)(F)[C@@H]3C[C@H]43)ccc(Cl)c12 [Compound 91E, N—((S)-1-(3-(4-chloro-3-(ethylamino)-1-methyl-1H-indazol-7-yl)-6-(3-hydroxy-3-methylbut-1-yn-1-yl)pyridin-2-yl)-2-(3,5-difluorophenyl)ethyl)-2-((3b-S,4aR)-3-(difluoromethyl)-5,5-difluoro-3b,4,4a,5-tetrahydro-1H-cyclopropa[3,4]cyclopenta[1,2-c]pyrazol-1-yl)acetamide] | 9.38 µM | 100% | 100% |
| Cn1nc(NC(N)=O)c2c(Cl)ccc(-c3ccc(C#CC(C)(C)O)nc3[C@H](Cc3cc(F)cc(F)c3)NC(=O)Cn3nc(C(F)F)c4c3C(F)(F)[C@@H]3C[C@H]43)c21 [Compound 92, N—((S)-1-(3-(4-chloro-1-methyl-3-ureido-1H-indazol-7-yl)-6-(3-hydroxy-3-methylbut-1-yn-1-yl)pyridin-2-yl)-2-(3,5-difluorophenyl)ethyl)-2-((3bS,4aR)-3-(difluoromethyl)-5,5-difluoro-3b,4,4a,5-tetrahydro-1H-cyclopropa[3,4]cyclopenta[1,2-c]pyrazol-1-yl)acetamide] | 6.24 µM | 100% | 100% |
| Cn1nc(NCC#N)c2c(Cl)ccc(-c3ccc(C#CC(C)(C)O)nc3[C@H](Cc3cc(F)cc(F)c3)NC(=O)Cn3nc(C(F)F)c4c3C(F)(F)[C@@H]3C[C@H]43)c21 [Compound 93, N—((S)-1-(3-(4-chloro-3-((cyanomethyl)amino)-1-methyl-1H-indazol-7-yl)-6-(3-hydroxy-3-methylbut-1-yn-1-yl)pyridin-2-yl)-2-(3,5-difluorophenyl)ethyl)-2-((3b-S,4aR)-3-(difluoromethyl)-5,5-difluoro-3b,4,4a,5-tetrahydro-1H-cyclopropa[3,4]cyclopenta[1,2-c]pyrazol-1-yl)acetamide] | 4.81 µM | 92% | 92% |
| CC(=O)Nc1nn(C)c2c(-c3ccc(C#CC(C)(C)O)nc3[C@H](Cc3cc(F)cc(F)c3)NC(=O)Cn3nc(C(F)F)c4c3C(F)(F)[C@@H]3C[C@H]43)ccc(Cl)c12 [Compound 94, N—((S)-1-(3-(3-acetamido-4-chloro-1-methyl-1H-indazol-7-yl)-6-(3-hydroxy-3-methylbut-1-yn-1-yl)pyridin-2-yl)-2-(3,5-difluorophenyl)ethyl)-2-((3b-S,4aR)-3-(difluoromethyl)-5,5-difluoro-3b,4,4a,5-tetrahydro-1H-cyclopropa[3,4]cyclopenta[1,2-c]pyrazol-1-yl)acetamide] | 7.58 µM | 100% | 100% |
| CCC(=O)Nc1nn(C)c2c(-c3ccc(C#CC(C)(C)O)nc3[C@H](Cc3cc(F)cc(F)c3)NC(=O)Cn3nc(C(F)F)c4c3C(F)(F)[C@@H]3C[C@H]43)ccc(Cl)c12 [Compound 95, N-(4-chloro-7-(2-((S)-1-(2-((3b-S,4aR)-3-(difluoromethyl)-5,5-difluoro-3b,4,4a,5-tetrahydro-1H-cyclopropa[3,4]cyclopenta[1,2-c]pyrazol-1-yl)acetamido)-2-(3,5-difluorophenyl)ethyl)-6-(3-hydroxy-3-methylbut-1-yn-1-yl)pyridin-3-yl)-1-methyl-1H-indazol-3-yl)propionamide] | 6.51 µM | 93% | 93% |
